Data on 86 compounds can be found in the Bradley open melting point set (2014).

Values joined by “and” are separate entries in the source; they are usually repeats but may differ in a detail not shown here. Equal entries are not always repeated.

`C[C@H]1CCCC[C@@H]1C` (relative stereo) [trans-1,2-dimethylcyclohexane] returned a melting point of -88 °C. Next, `Cc1cn([C@H]2C[C@H](O)[C@@H](CO)O2)c(=O)[nH]c1=O` [Thymidine]: 188 °C. Under `N#C/C(=C\c1ccc(Cl)cc1)c1nc(-c2ccccc2)cs1` stands 104 °C. Under `CC(C)(C)[SiH](Cl)C(C)(C)C` [Di-tert-butyl(chloro)silane] stands 39 °C.

In the case of `COc1cc(O)cc(OC)c1OC` [3,4,5-trimethoxyphenol], the melting point was found to be 146 °C. Under `OC1CCCCC1` [Cyclohexanol] stands 21 °C. Next, `CC(C)I` [2-Iodopropane]: -90 °C; `CCOC(=O)c1ccc(C(C)=O)cc1` [ethyl_p-acetylbenzoate]: 55 °C. Consider `Cc1ccccc1CO` [2-methylbenzyl alcohol], for which the melting point turned out to be 35 °C. `COc1c(F)cc(F)cc1B(O)O` [3,5-difluoro-2-methoxybenzeneboronic acid] came in with a melting point of 114 °C. Next, `CCOC(=O)c1csnn1` [ethyl 1,2,3-thiadiazole-4-carboxylate]: 84 °C; `FC(F)(F)c1cc(-n2cccc2)cc(C(F)(F)F)c1` [1-[3,5-bis(trifluoromethyl)phenyl]pyrrole]: 42 °C. Next, `CC(=O)C=Cc1ccc([N+](=O)[O-])o1` [3-Buten-2-one, 4- (5-nitro-2-furanyl)-]: 194 °C. Next, `BrCCCCBr` [1,4-dibromobutane]: -17 °C. The compound `Cc1cc(Br)cnc1N` [2-amino-5-bromo-3-methylpyridine] displayed a melting point of 92 °C. `O=C1CC(=O)NC(=O)N1` [Barbituric acid] registered a melting point of 248 °C. Under `c1ccc(C(c2ccccc2)c2ccccc2)cc1` [triphenylmethane] stands 94 °C; under `Cc1cc2cc(Cl)ccc2[nH]1` [5-chloro-2-methylindole], 112 °C; under `CCc1c(C)[nH]c2ccc(N(C)C)cc12` [medmain], 100 °C.

Consider `O=C(O)/C=C/c1ccc(Cl)cc1Cl` [trans-2,4-dichlorocinnamic acid], for which the melting point was 234 °C. Under `Cc1nnc(SCC2=C(C(=O)O)N3C(=O)[C@@H](NC(=O)Cn4cnnn4)[C@H]3SC2)s1` [cefazolin] stands 190 °C; under `O=C(O)CC1Sc2ccccc2NC1=O` (stereo unspecified) [3,4-dihydro-3-oxo-2h-1,4-benzothiazine-2-acetic acid], 188 °C. Under `CN(C)c1ccc(C2CNCCN2)cc1` (stereo unspecified) [N,N-dimethyl-4-(2-piperazinyl)aniline] stands 128 °C; under `C=CCn1c(=O)n(CC=C)c(=O)n(CC=C)c1=O` [1,3,5-Triallyl-1,3,5-triazinane-2,4,6-trione], 24 °C. Consider `O=C(O)C1COc2ccccc2O1` (stereo unspecified) [1,4-benzodioxane-2-carboxylic acid], for which the melting point is 124 °C. Next, `O=P1(NCCCl)OCCCN1CCCl` (stereo unspecified) [ifosfamide]: 45.5 °C and 48 °C. Under `CC(=O)OCC1=C(C(=O)O)N2C(=O)[C@@H](NC(=O)Cc3cccs3)[C@H]2SC1` [Cefalotin] stands 160 °C; under `COc1cc(C(=O)NCCCCCC(=O)O)cc(OC)c1OC` [capobenicacid], 121 °C. Next, `CC1=CCCCC1` [1-methylcyclohexene]: -120 °C. `CCCCC=O` [Valeraldehyde] gave a melting point of -91.5 °C. `CCCCCCCCCCCCCCCC(=O)OC[C@H](O)[C@H]1OC(=O)C(O)=C1O` [L-ascorbic acid 6-palmitate] registered a melting point of 114 °C. Under `COC(=O)c1ccc(I)c([N+](=O)[O-])c1` [methyl 4-iodo-3-nitrobenzoate] stands 103 °C; under `COc1cc(C(=O)NN)ccc1O` [vanillic acid hydrazide], 211 °C; under `OC[C@H]1O[C@H](O[C@H]2[C@H](O)[C@@H](O)[C@@H](O[C@H]3[C@H](O)[C@@H](O)C(O)O[C@@H]3CO)O[C@@H]2CO)[C@H](O)[C@@H](O)[C@@H]1O` (stereo partly specified), 133 °C. Under `O=[N+]([O-])c1c(Cl)c(Cl)c(Cl)c(Cl)c1Cl` [pentachloronitrobenzene] stands 144 °C; under `N#Cc1ccccc1O` [2-cyanophenol], 94 °C.

In turn, `O=[N+]([O-])c1ccc(N2CCCCC2)cc1` [1-(4-nitrophenyl)piperidine] registered a melting point of 104 °C. Next, `O=C(O)c1cc(Cl)ccc1Cl` [2,5-dichlorobenzoic_acid]: 156 °C; `Nc1ncnc(Nc2ccc(Cl)cc2)n1` [chlorazanil]: 233 °C. Next, `O=C(O)Cc1ccc(O)cc1` [4-hydroxyphenylacetic acid]: 152 °C; `CCCCCCCl` [1-chlorohexane]: -94 °C. In the case of `O=C(O)/C=C/c1ccc(B(O)O)cc1` [4-(2-carboxyvinyl)benzeneboronic acid], the melting point worked out at 193 °C. Next, `Cc1noc(NS(=O)(=O)c2ccc(N)cc2)c1C` [sulfisoxazole]: 191 °C and 194 °C; `Nc1ncnc2c1ncn2[C@@H]1O[C@H](COP(=O)(O)O)[C@@H](O)[C@H]1O` [Adenosine monophosphate]: 186 °C. Under `O=C(O)c1c(P(c2ccccc2)c2ccccc2)ccc2ccccc12` [2-diphenylphosphino-1-naphthoic acid] stands 191 °C; under `O=C(Cc1ccc(-c2ccccc2)cc1)Nc1ccccn1` [difenpiramide], 122 °C. Under `CC(C)I` [2-iodopropane] stands -90 °C. In turn, `CC[C@H](C)C(=O)O[C@H]1C[C@@H](C)C=C2C=C[C@H](C)[C@H](CC[C@@H]3C[C@@H](O)CC(=O)O3)[C@H]21` [lovastatin] yielded a melting point of 174 °C. Under `CC1CCCCC1` [methylcyclohexane] stands -126 °C; under `O=c1ncnc2n(C3CCCCC3)[nH]cc1-2` [1-cyclohexyl-1,2-dihydro-4H-pyrazolo[3,4-d]pyrimidin-4-one], 252 °C. Under `Nc1nc[nH]n1` [3-amino-1,2,4-triazole] stands 151 °C; under `COc1ccc2nc(N)sc2c1` [6-Methoxy-1,3-benzothiazol-2-amine], 166 °C.

In turn, `OCc1ccccc1Br` [o-bromobenzyl alcohol] came in with a melting point of 81 °C.

`OB(O)c1ccc(C2CCCCC2)cc1` [4-cyclohexylbenzeneboronic acid] gave a melting point of 220 °C. Next, `[2H]C([2H])([2H])C(=O)C([2H])([2H])[2H]` [(~2~H_6_)Propan-2-one]: -93 °C; `c1ccc(-c2ccc(-c3ccccc3)cc2)cc1` [p-terphenyl]: 213 °C; `CC(C)O` [Isopropyl Alcohol]: -89.5 °C. Under `c1ccc(-c2nc3ccccc3nc2-c2ccc3ccccc3c2)cc1` [2-naphthalen-2-yl-3-phenylquinoxaline] stands 122 °C; under `ClCc1ccc(Cl)c(Cl)c1` [3,4-dichlorobenzyl chloride], -3 °C; under `CCCNCCC` [di-n-propylamine], -63 °C. Next, `N#CCc1cccc(CC#N)c1` [1,3-phenylenediacetonitrile]: 34 °C; `COc1ccc(C=O)c(OC)c1OC` [2,3,4-trimethoxybenzaldehyde]: 40 °C; `COC(=O)c1ccccc1[N+](=O)[O-]` [methyl 2-nitrobenzoate]: -13 °C. `COc1ccccc1N1CCN(CCCNc2cc(=O)n(C)c(=O)n2C)CC1` [urapidil]: the melting point was determined as 156 °C. Under `CCc1ccc(B(O)O)cc1` [4-ethylbenzeneboronic acid] stands 152 °C; under `C/C(=C(/C#N)c1nc2ccccc2s1)c1cc2ccccc2oc1=O`, 156 °C. With `c1ccc(C2=C(c3ccccc3)C(c3ccccc3)C(c3ccccc3)=C2c2ccccc2)cc1` [pentaphenylcyclopentadiene], the melting point was determined as 256 °C. Next, `Cc1cccc(Cl)c1` [1-Chloro-3-methylbenzene]: -48 °C; `COC(=O)c1ccc(C=O)cc1` [Methyl 4-formylbenzoate]: 61 °C; `CC(=O)OC1CCC2C3CCC4CC=CCC4(C)C3CCC12C` (stereo unspecified) [androst-2-en-17-yl acetate]: 94 °C. Next, `CC(N)C(=O)O` (stereo in doubt) [D-Alanine]: 292 °C. Next, `C[C@]12CC[C@@H]3c4ccc(O)cc4CC[C@H]3[C@@H]1CC[C@@H]2O` [Estradiol]: 176 °C; `CCC[C@H]1CCC[C@@H]1C` (relative stereo) [trans-1-methyl-2-propylcyclopentane]: -123 °C. In the case of `OB(O)c1ccc(OCc2ccccc2)cc1` [4-benzyloxybenzeneboronic acid], the melting point came to 196 °C.

As for `CC(=O)CC(=O)OC(C)C` [isopropyl acetoacetate], the melting point was -27 °C. Next, `COc1ccccc1C(=O)O` [2-methoxybenzoic acid]: 101 °C; `O/N=C/c1ccccc1O` [salicylaldoxime]: 57 °C; `COP(=S)(OC)Oc1cc(Cl)c(Cl)cc1Cl` [fenchlorphos]: 35 °C. Next, `O=C(Cl)c1ccco1` [2-furoyl chloride]: -1 °C; `CCOc1ccc(C=O)cc1` [4-ethoxybenzaldehyde]: 14 °C; `CC1(C)[C@@H]2CC[C@]13CS(=O)(=O)N[C@@H]3C2` [(1S,2R)-10,2-camphorsultam]: 183 °C. Next, `O=Cc1ccc(B(O)O)cc1C(F)(F)F` [4-formyl-3-(trifluoromethyl)benzeneboronic acid]: 201 °C; `CCC1CO1` (stereo unspecified) [2-Ethyloxirane]: -60 °C.

For `NCCN` [ethylenediamine], the melting point was found to be 10 °C. Next, `Cc1cccc(C(=O)O)c1` [3-Methylbenzoic acid]: 112 °C. Next, `CS(N)(=O)=O` [methanesulfonamide]: 90 °C.
